Experiment: Short-term, medium-term and autosampler stability in plasma samples and extracts
Assay type: physicochemical, human
Settings: for Stability in plasma samples at −40 °C (time stable): tested 2 weeks, 1 and 2 months
Protocol: Sample stability was measured at two concentration levels (LQC and HQC) in triplicate. Long-term stability was evaluated at −40 °C for 2 weeks, 1 and 2 months; short-term stability was evaluated at room temperature (rt) under light exposure and with light protection and at 4 °C (light protection) for 1, 2, 3, 4, and 7 days. Autosampler stability was also assessed by storing extracts in the autosampler compartment at 10 °C for 1, 2, 3, 4, and 7 days.
The mean concentration values obtained from each measurement were compared to the concentrations measured at T0 before storage. Stability data are expressed as percentual difference from T0.

[1] = plasma samples stored at −40 °C

| Compound | Stability in plasma samples at −40 °C (time stable) [1] | further results |
| --- | --- | --- |
| COC(=O)C(N)Cc1ccc(O)c(O)c1 (stereo not shown) [LDME, levodopa methyl ester] | – | Stability in plasma samples at −40 °C (in words) [1]: not satisfactory |
| NC(CO)C(=O)NNCc1ccc(O)c(O)c1O (stereo not shown) [benserazide] | – | Stability of the compound (in words) (method development, conditions not stated): severe stability issues |
| C[C@@](Cc1ccc(O)c(O)c1)(NN)C(=O)O [Carbidopa, carbidopa] | up to 1 months | – |
| N[C@@H](Cc1ccc(O)c(O)c1)C(=O)O [L-DOPA, Levodopa] | up to 2 months | – |

Source: publication PMC10254897, “Development and Validation of a New LC-MS/MS Bioanalytical Method for the Simultaneous Determination of Levodopa, Levodopa Methyl Ester, and Carbidopa in Human Plasma Samples” (Molecules, 2023)
